Data published in patent US11167015B2, “Arginine and its use as a T cell modulator” (INSTITUTE FOR RESEARCH IN BIOMEDICINE, priority 2016, dated 2021).

How the values were obtained:
[1] = system: OT-I T cells; test: Adoptive T cell transfer and survival experiment; type: in vivo; settings: activated 4 days in L-Arg medium, transfer into Cd3e−/− mice
Procedure: CD90.1^+ CD45.1/2^+ OT-I cells were activated with plate-bound antibodies to CD3 and CD28 in control medium. OT-I cells with a different congenic marker (CD90.1^+ CD45.1^+) were activated in L-arginine-supplemented medium. At day 4, equal cell numbers were injected into the tail vein of Cd3e^−/− host mice. To study the expansion of OT-I effector cells, host mice were sacrificed after 1, 3, 6, and 10 days post transfer and CD90.1^+ OT-I T cells from lymphoid organs (spleen and lymph nodes) were enriched with anti-CD90.1 micro beads (Miltenyi Biotec), stained and analysed by FACS. The following monoclonal antibodies were used α-CD8α (53-6.7), α-CD44 (1M7), α-CD62L (MEL-14), α-CD90.1 (OX-7), α-CD90.2 (30-H12), α-CD45.1 (A20), α-CD45.2 (104).

[2] = system: human naïve CD4+ T cells; test: Cytokine analysis (IFN-gamma); type: cell-based
Procedure: 10^5 naïve T cells were stimulated with plate bound anti-CD3 (5 μg ml^−1) and anti-CD28 (1 μg ml^−1) in the presence of IL-12 (10 ng/ml, R&D Systems) to polarize cells towards a Th1 phenotype. After 48 h, cells were transferred into U-bottom plates and IL-2 (10 ng/ml, R&D Systems) was added. Three days later, supernatants were collected and interferon-γ was quantified using FlowCytomix assays (eBioscience). Samples were analyzed on a BD LSR Fortessa FACS instrument and quantification was performed with the FlowCytomix Pro 3.0 software. For re-stimulation, cells were cultured for 5 h in the presence of 0.2 μM phorbol 12-myristate 13-acetate (PMA) and 1 μg/ml ionomycin (both from Sigma).

[3] = system: T cell proteome; test: Limited proteolysis and mass spectrometry (structural changes); type: binding, human
[4] = system: human naïve CD4+ T cells; test: T cell proliferation (CellTrace Violet dilution); type: cell-based
Procedure: FIG. 10. […] (A) Kinetics of T cell proliferation. Human naïve CD4+ T cells were labeled with CellTraceViolet (CTV) and activated in Ctrl medium or in L-Arg medium or in medium supplemented with 3 mM D-arginine or 3 mM L-arginine together with 3 mM L-lysine. Cell divisions were monitored at 48 h and 72 h by flow cytometry. (B) CTV-labeled CD4+ T cells were activated in normal medium or L-Arg medium and the dilution of CTV was measured over time by flow cytometry. n=5 from two donors. (C) 3H-L-arginine uptake by 3 day-activated CD4+ T cells during a 15 minutes pulse. Where indicated, 3 mM L-arginine, D-arginine or L-lysine was added to the culture medium as a competitive uptake inhibitor. n=7 for control, n=9 for L-Arg, n=5 for D-Arg, and n=9 for L-Lys. Bars represent the s.e.m.

[5] = system: CD44hi CD4+ TCR transgenic T cells; test: Mouse experiment with dietary L-arginine: transferred HA TCR transgenic T cells in draining lymph nodes; type: in vivo, BALB/c mice; settings: daily oral 1.5 mg/g body weight, 15 days after immunization with HA110-119 in CFA
Procedure: 2×10^5 CD90.1^+ CD4^+ HA TCR-transgenic T cells, on a BALB/c background, were adoptively transferred in Wt CD90.2^4 BALB/c mice. The day after, host mice were immunized s.c. with influenza HA110-119 peptide (purchased from Anaspec) emulsified in CFA. L-Arg (1.5 g/kg body weight) or PBS, as control, was daily orally administrated, starting 1 day before T cell transfer and until the end of the experiment. Draining lymph nodes were analyzed on day 15 post immunization for the presence of transferred transgenic memory CD44^hi CD90.1^+ CD4^+ T cells. Sera were collected 30 min after oral L-arginine administration to mice and L-arginine and L-threonine concentrations in sera were measured on a MassTrak (Waters) instrument at the functional genomics center in Zurich. To determine intracellular L-arginine levels, activated T cells were isolated from draining lymph nodes 60 hours after activation and 30 min after the daily L-arginine administration. Metabolites were extracted with hot 70% ethanol and analyzed by HILIC LC-MS/MS.

SMILES: N=C(N)NCCC[C@H](N)C(=O)O [L-arginine]
- survival capacity of OT-I T cells in vivo [1]: higher survival capacity
- IFN-gamma secretion ([2]; L-arginine-supplemented medium, 10 ng/ml IL-12, supernatants after 5 days): much less
- IFN-gamma secretion after re-activation ([2]; re-activation for 5 h with PMA/Ionomycin): comparable amounts
- protein domains affected by structural changes ([3]; 1 mM L-arginine): affect the PHD domain of BAZ1B and the AT-hook DNA-binding domain of PSIP1
- number of proteins (out of 5,856 identified) with structural change exclusively in response to L-arginine ([3]; 1 mM, not affected by D-arginine or L-ornithine, six donors): 20
- onset of proliferation ([4]; 3 mM in medium): slightly delayed onset
- doubling rates once proliferation started ([4]; L-arginine-supplemented medium): comparable to controls
- CD44hi CD4+ TCR transgenic T cells recovered in draining lymph nodes compared to control mice [5]: Three times more
